Source: US9371336B2, “Compounds for treating spinal muscular atrophy” (PTC Therapeutics Inc., priority 2012, dated 2016)

Legend:
Smn protein [1] = assay: Smn protein assay in tissues of adult C/C-allele SMA mice (HTRF); type: in vivo, mouse; conditions: 50 mg/kg BID for 10 days, relative to vehicle group, p<0.001 by ANOVA, n=10 (FIG. 8)
Description: (§1) The Smn HTRF protein assay is used to quantify the level of Smn protein in mouse tissues.
(§2) The tissue samples in Safe-Lock tubes are weighed and the volume of RIPA buffer containing the protease inhibitor cocktail is added based on the weight to volume ratios for each type of tissue: Brain (50 mg/mL), Muscle (50 mg/mL) and Spinal Cord (25 mg/mL).
(§3) Tissues are homogenized using the TissueLyzer by bead milling. 5 mm stainless steel beads are added to the sample and shaken vigorously for 5 minutes at 30 Hz in the TissueLyzer. The samples are then centrifuged for 20 minutes at 14,000×g in a microcentrifuge and the homogenates transferred to the PCR plate. The homogenates are diluted in RIPA buffer to approximately 1 mg/mL for HTRF and approximately 0.5 mg/mL for total protein measurement using the BCA protein assay. For the SMN HTRF assay, 35 μL of the tissue homogenate is transferred to a 384-well plate containing 5 μL of the antibody solution (1:100 dilution of each of the anti-SMNd2 and anti-SMN Kryptate in reconstitution buffer). […] Fluorescence for each well of the plate at 665 nm and 620 nm is measured on an EnVision multilabel plate reader (Perkin-Elmer). The total protein in the tissue homogenate is measured using the BCA assay according to the manufacturer's protocol.
(§4) The normalized fluorescence signal is calculated for each sample, Blank and vehicle control well by dividing the signal at 665 nm by the signal at 620 nm. Normalizing the signal accounts for possible fluorescence quenching due to the matrix effect of the tissue homogenate. The ΔF value (a measurement of Smn protein abundance as a percent value) for each tissue sample well is calculated by subtracting the normalized average fluorescence for the Blank control wells from the normalized fluorescence for each tissue sample well, then dividing this difference by the normalized average fluorescence for the Blank control wells and multiplying the resulting value by 100. The ΔF value for each tissue sample well is divided by the total protein quantity (determined using the BCA assay) for that tissue sample. […]

[2] = tested on: gems (Smn-dependent nuclear speckles) in SMA patient fibroblast cells; assay: Gems count (Smn-dependent nuclear speckle count) assay; type: cell-based, human; conditions: SMA Type 1 patient cells, 48 hour, fluorescence microscopy (FIG. 7)
Excerpt: The level of Smn protein directly correlates with the amount of nuclear foci, also known as gems, produced upon staining the cell with a fluorescently labeled anti-Smn antibody (Liu and Dreyfuss, EMBO J., 1996, 15:3555). Gems are multi-protein complexes whose formation is nucleated by the Smn protein and the gems count assay is used to evaluate the level of Smn protein in the cell. As described herein, the gems count assay is used to quantify the level of Smn protein in SMA patient fibroblast cells treated with a test compound.
Cells are thawed and incubated in DMEM-10% FBS for 72 hours, then trypsinized, counted and resuspended to 100,000 cells/mL in DMEM-10% FBS. The cell suspension (2 mL) is plated in a 6-well cell culture plate with a sterile cover slip and incubated for 3 to 5 hours. Test compounds are serially diluted 3.16-fold in 100% DMSO to generate a 7-point dilution curve. […]
Cell culture medium is aspirated from the wells containing cover slips and gently washed three times with cold PBS. […] The number of gems is counted per ≧150 nuclei and % activation is calculated using DMSO and 10 nM bortezomib as controls. For each test compound, the cells are examined at all wavelengths to identify test compounds with inherent fluorescence.

Smn protein [3] = assay: Smn protein in tissues of neonatal Δ7 SMA mice (HTRF); type: in vivo, mouse; conditions: neonatal SMA Δ7 homozygous knockout mice
Description: as §1, §2, §3, §4

Compound | total protein-normalized Smn level, brain (Smn protein [1]) | total protein-normalized Smn level, muscle (Smn protein [1]) | total protein-normalized Smn level, spinal cord (Smn protein [1]) | gems (nuclear speckle count) relative to DMSO [2] | total protein normalized Smn level, brain (Smn protein [3]; QD IP for 7 days (PND 3 to PND 9) (FIG. 9a)) | total protein normalized Smn level, spinal cord (Smn protein [3]; QD IP for 7 days (PND 3 to PND 9) (FIG. 9b)) | total protein normalized Smn level, muscle (Smn protein [3]; QD IP for 7 days (PND 3 to PND 9) (FIG. 9c))
CN1CCN(c2ccc3cc(-c4nc5c(Cl)cccc5s4)c(=O)oc3n2)CC1 [Cpd 5, 3-(4-chloro-1,3-benzothiazol-2-yl)-7-(4-methylpiperazin-1-yl)-2H-pyrano[2,3-b]pyridin-2-one] | increased | increased | increased | progressively more gems |  |  | 
Cc1ccc2nc(-c3cc4ccc(N5CCN(C)CC5)nc4oc3=O)cn2c1 [Cpd 27, 3-(6-methylimidazo[1,2-a]pyridin-2-yl)-7-(4-methylpiperazin-1-yl)-2H-pyrano[2,3-b]pyridin-2-one] |  |  |  |  | dose dependently increased | dose dependently increased | dose dependently increased
